Experimental data from US20090069302A1 (SMITHKLINE BEECHAM CORPORATION, priority 2006, published 2009).

Molecular target: T1, AXOR109 (Homo sapiens, UniProt Q8TDU6)
T1 construct: expressed in transfected cells; host or cells: melanophore cells, transfected by electroporation
T1 sequence (Q8TDU6 1-330): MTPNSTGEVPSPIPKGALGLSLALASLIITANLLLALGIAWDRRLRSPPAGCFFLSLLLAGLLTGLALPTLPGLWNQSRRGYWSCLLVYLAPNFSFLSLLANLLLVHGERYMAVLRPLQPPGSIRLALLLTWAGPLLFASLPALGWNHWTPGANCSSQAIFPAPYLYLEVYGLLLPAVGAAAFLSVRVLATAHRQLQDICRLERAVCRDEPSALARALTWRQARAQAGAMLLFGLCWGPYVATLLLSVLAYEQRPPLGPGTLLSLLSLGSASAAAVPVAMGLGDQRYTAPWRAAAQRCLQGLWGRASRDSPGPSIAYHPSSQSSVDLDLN
Experiment: Human AXOR109/Melanophore Assay
Assay type: cell-based
Conditions: melanophore assay; for Emax: 1 h; for EC50: AXOR109 transfected melanophores
Procedure: AXOR109 is a Gs-coupled receptor and therefore increases intracellular cAMP leading to melanosome dispersion. Compounds of the present invention were characterized in a melanophore assay as described in Jayawickreme C K, et al., Current Protocols in Pharmacology (2005) 12.9.1-12.9.16. Briefly, melanophore cells are transfected by electroporation with AXOR109 expressing cDNA. Cells are then plated in 384 well clear bottom plates at 8E3 cells per well in 50 μl of conditioned fibroblast media (CFM). Compounds to be tested are serially diluted 3-fold in DMSO and further diluted 1:100 with melanophore assay buffer (MAB)+10 nM Melatonin to yield 11 point concentration response curves. Following 2 hour incubation with MAB+1% DMSO+10 nM Melatonin, initial transmittance is read on a TwisterII/Spectramax plate reader. Compounds are then added to the cells and incubated for 1 hour, and final transmittance is read as before. Results are compared to vehicle (MAB+1% DMSO+10 nM Melatonin) and to a positive control (MAB+1% DMSO+10 nM Melatonin+200 nM alpha-MSH). Data are calculated for each well as follows: 1-(Transmitance-final/Transmitance-initial). Each well result is then normalized to alpha-MSH, the system max control for Gs/Gq coupled receptors using the following equation: (ObjX−Control1)/(Control2−Control1)*100. The percent system max is used to generate the pEC50 using the equation: y=((Vmax*x̂n)/(K̂n+x̂n))+Y2. Acceptable Z-prime values should be >0.4. Compounds of the present invention have a pEC50≧5.0 in the above described assay.

[1] = normalized to alpha-MSH system max

Row | Emax [1] | EC50 | % Max [1] | Structure (SMILES)
1 | 51 to 75% | 126 to 1000 nM | – | COc1ccc(S(=O)(=O)N2CCC(=O)N(S(=O)(=O)c3ccc(OC)c(OC)c3)CC2)cc1OC [Example 28, 1,4-bis{[3,4-bis(methyloxy)phenyl]sulfonyl}hexahydro-5H-1,4-diazepin-5-one]
2 | 51 to 75% | 126 to 1000 nM | – | COc1ccc(S(=O)(=O)N2CCN(S(=O)(=O)c3ccc(OC)c(OC)c3)C(C)C2)cc1OC (stereo not shown) [Example 29, 1,4-bis{[3,4-bis(methyloxy)phenyl]sulfonyl}-2-methylpiperazine]
3 | 76 to 100% | 1260 to 10000 nM | – | COc1ccc(S(=O)(=O)N2CCCN(S(=O)(=O)c3ccc(OC)c(OC(F)(F)F)c3)CC2)cc1OC [Example 30, 1-{[3,4-bis(methyloxy)phenyl]sulfonyl}-4-({4-(methyloxy)-3-[(trifluoromethyl)oxy]phenyl}sulfonyl)hexahydro-1H-1,4-diazepine]
4 | 0 to 50% | 126 to 1000 nM | – | COc1ccc(S(=O)(=O)N(C)CCN(C)S(=O)(=O)c2ccc(OC)c(OC(F)(F)F)c2)cc1OC [Example 31, N-methyl-N-{2-[methyl({4-(methyloxy)-3 [(trifluoromethyl)oxy]phenyl}sulfonyl)amino]ethyl}-3,4-bis(methyloxy)benzenesulfonamide]
5 | 51 to 75% | 126 to 1000 nM | – | COc1ccc(S(=O)(=O)N2C[C@@H](C)N(S(=O)(=O)c3ccc(OC)c(OC)c3)[C@@H](C)C2)cc1F [Example 32, 1-{[3,4-bis(methyloxy)phenyl]sulfonyl}-4-{[3-fluoro-4-(methyloxy)phenyl]sulfonyl}-2,6-cis-dimethylpiperazine]
6 | 51 to 75% | 1260 to 10000 nM | – | COc1cccc(S(=O)(=O)N2C[C@@H](C)N(S(=O)(=O)c3ccc(OC)c(OC)c3)[C@@H](C)C2)c1 [Example 33, 1-{[3,4-bis(methyloxy)phenyl]sulfonyl}-2,6-cis-dimethyl-4-{[3-(methyloxy)phenyl]sulfonyl}piperazine]
7 | 51 to 75% | 1260 to 10000 nM | – | COc1ccc(S(=O)(=O)N2[C@H](C)CN(S(=O)(=O)c3ccc(-c4cnco4)cc3)C[C@@H]2C)cc1OC [Example 34, 1-{[3,4-bis(methyloxy)phenyl]sulfonyl}-2,6-cis-dimethyl-4-{[4-(1,3-oxazol-5-yl)phenyl]sulfonyl}piperazine]
8 | 51 to 75% | 126 to 1000 nM | – | COc1ccc(S(=O)(=O)N2C[C@@H](C)N(S(=O)(=O)c3ccc(OC)c(OC)c3)[C@@H](C)C2)cc1 [Example 35, 1-{[3,4-bis(methyloxy)phenyl]sulfonyl}-2,6-cis-dimethyl-4-{[4-(methyloxy)phenyl]sulfonyl}piperazine]
9 | 51 to 75% | 126 to 1000 nM | – | COc1ccc(S(=O)(=O)N2C[C@@H](C)N(S(=O)(=O)c3ccc(OC)c(OC(F)(F)F)c3)[C@@H](C)C2)cc1OC [Example 36, 4-{[3,4-bis(methyloxy)phenyl]sulfonyl}-2,6-cis-dimethyl-1-({4-(methyloxy)-3-[(trifluoromethyl)oxy]phenyl}sulfonyl)piperazine]
10 | 0 to 50% | 1260 to 10000 nM | – | COc1ccc(S(=O)(=O)N2C[C@@H](C)N(S(=O)(=O)c3ccc4oc(=O)ccc4c3)[C@@H](C)C2)cc1OC [Example 37, 6-[(4-{[3,4-bis(methyloxy)phenyl]sulfonyl}-2,6-cis-dimethyl-1-piperazinyl)sulfonyl]-2H-chromen-2-one]
11 | 51 to 75% | 1260 to 10000 nM | – | COc1ccc(S(=O)(=O)N2[C@H](C)CN(S(=O)(=O)c3ccc(OC)c(OC)c3)C[C@@H]2C)cc1O [Example 38, 5-[(4-{[3,4-bis(methyloxy)phenyl]sulfonyl}-2,6-cis-dimethyl-1-piperazinyl)sulfonyl]-2-(methyloxy)phenol]
12 | 0 to 50% | 1260 to 10000 nM | – | COc1ccc(S(=O)(=O)N2CC(C)N(S(=O)(=O)c3ccc(OC)c(OC)c3)C(C)C2C)cc1OC (stereo not shown) [Example 39, 1,4-bis{[3,4-bis(methyloxy)phenyl]sulfonyl}-2,3,5-trimethylpiperazine]
13 | 51 to 75% | 126 to 1000 nM | – | COc1ccc(S(=O)(=O)N2CCN(S(=O)(=O)c3ccc(OC)c(OC)c3)[C@@H](C)[C@H]2C)cc1OC [Example 40, 1,4-bis{[3,4-bis(methyloxy)phenyl]sulfonyl}-2,3-dimethylpiperazine]
14 | 51 to 75% | 126 to 1000 nM | – | CCc1cc(S(=O)(=O)N2CCCN(S(=O)(=O)c3ccc(OC)c(OC)c3)CC2)ccc1OC [Example 41, 1-{[3,4-bis(methyloxy)phenyl]sulfonyl}-4-{[3-ethyl-4-(methyloxy)phenyl]sulfonyl}hexahydro-1H-1,4-diazepine]
15 | 51 to 75% | 1260 to 10000 nM | – | COc1ccc(S(=O)(=O)NCCN(C)S(=O)(=O)c2ccc(OC)c(OC)c2)cc1OC [Example 42, N-[2-({[3,4-bis(methyloxy)phenyl]sulfonyl}amino)ethyl]-N-methyl-3,4-bis(methyloxy)benzenesulfonamide]
16 | 0 to 50% | 126 to 1000 nM | – | CCc1cc(S(=O)(=O)N(C)CCN(C)S(=O)(=O)c2ccc(OC)c(OC)c2)ccc1OC [Example 43, N-{2-[{[3,4-bis(methyloxy)phenyl]sulfonyl}(methyl)amino]ethyl}-N-methyl-3-ethyl-4-(methyloxy)benzenesulfonamide]
17 | 51 to 75% | 126 to 1000 nM | – | COc1ccc(S(=O)(=O)N(C)CC(C)N(C)S(=O)(=O)c2ccc(OC)c(OC)c2)cc1OC (stereo not shown) [Example 44, N,N′-1,2-propanediylbis[N-methyl-3,4-bis(methyloxy)benzenesulfonamide]]
18 | 76 to 100% | 1260 to 10000 nM | – | CC[C@@H]1CN(S(=O)(=O)c2ccc(OC)c(OC)c2)[C@@H](CC)CN1S(=O)(=O)c1ccc(OC)c(OC)c1 [Example 45, (2R,5S)-1,4-bis{[3,4-bis(methyloxy)phenyl]sulfonyl}-2,5-diethylpiperazine]
19 | 51 to 75% | 1260 to 10000 nM | – | CCC1CN(S(=O)(=O)c2ccc(OC)c(OC)c2)C(C)CN1S(=O)(=O)c1ccc(OC)c(OC)c1 (stereo not shown) [Example 46, 1,4-bis{[3,4-bis(methyloxy)phenyl]sulfonyl}-2-ethyl-5-methylpiperazine]
20 | – | < 126 nM | – | COc1ccc(S(=O)(=O)N2C[C@H](C)N(S(=O)(=O)c3ccc(OC)c(OC)c3)C[C@@H]2C)cc1OC [Example 47, (2S,5S)-1,4-bis{[3,4-bis(methyloxy)phenyl]sulfonyl}-2,5-dimethylpiperazine]
21 | 76 to 100% | 1260 to 10000 nM | – | COc1ccc(S(=O)(=O)N2CC(C)(C)N(S(=O)(=O)c3ccc(OC)c(OC)c3)CC2=O)cc1OC [Example 48, 1,4-bis{[3,4-bis(methyloxy)phenyl]sulfonyl}-5,5-dimethyl-2-piperazinone]
22 | 51 to 75% | 1260 to 10000 nM | – | COc1ccc(S(=O)(=O)N2CCCN(S(=O)(=O)c3ccc(OC)c(OC)c3)C(C)C2)cc1OC (stereo not shown) [Example 49, 1,4-bis{[3,4-bis(methyloxy)phenyl]sulfonyl}-2-methylhexahydro-1H-1,4-diazepine]
23 | 76 to 100% | 126 to 1000 nM | – | COc1ccc(S(=O)(=O)N2CCN(S(=O)(=O)c3ccc(OC)c(OC)c3)C(C)(C)C2)cc1OC [Example 50, 1,4-bis{[3,4-bis(methyloxy)phenyl]sulfonyl}-2,2-dimethylpiperazine]
24 | 76 to 100% | 1260 to 10000 nM | – | COc1ccc(S(=O)(=O)N2CCN(S(=O)(=O)c3ccc(OC)c(OC)c3)CC(=O)C2)cc1OC [Example 51, 1,4-bis{[3,4-bis(methyloxy)phenyl]sulfonyl}hexahydro-6H-1,4-diazepin-6-one]
25 | 76 to 100% | 126 to 1000 nM | – | COc1ccc(S(=O)(=O)N2CCN(S(=O)(=O)c3ccc(OC)c(OC)c3)CC(F)C2)cc1OC [Example 52, 1,4-bis{[3,4-bis(methyloxy)phenyl]sulfonyl}-6-fluorohexahydro-1H-1,4-diazepine]
26 | 51 to 75% | 126 to 1000 nM | – | COc1ccc(S(=O)(=O)N2CCN(S(=O)(=O)c3ccc(OC)c(OC)c3)CC(F)(F)C2)cc1OC [Example 53, 1,4-bis{[3,4-bis(methyloxy)phenyl]sulfonyl}-6,6-difluorohexahydro-1H-1,4-diazepine]
27 | – | 126 to 1000 nM | * (“*” = 0% to 50%) | COc1ccc(S(=O)(=O)N2C[C@@H](C)N(S(=O)(=O)c3ccc(OC)c(OC)c3)[C@@H](C)C2)cc1OC [Example 54, (2R,6S)-1,4-bis{[3,4-bis(methyloxy)phenyl]sulfonyl}-2,6-dimethylpiperazine]
28 | 51 to 75% | 126 to 1000 nM | – | COc1ccc(S(=O)(=O)N(C)C(C)C(C)N(C)S(=O)(=O)c2ccc(OC)c(OC)c2)cc1OC (stereo not shown) [Example 55, N,N′-2,3-butanediylbis[N-methyl-3,4-bis(methyloxy)benzenesulfonamide]]
